Earlier results in patent publication US6727227B1, “Tetrapetide revealing geroprotective effect, pharmacological substance on its basis, and the method of its application” (Obschestvo S Ogranichennoi Otvetstven-Nostiju “Klinika …, priority 2002, dated 2004).

Assays:
[1] = system: mice; conditions: cited from earlier work
[2] = system: Drosophila melanogaster (HEM strain); conditions: cited from earlier work
[3] = system: experimental animals; conditions: cited from earlier work
[4] = system: mice of SAM strain; conditions: diet with increased amount for 7 months; cited from earlier work
[5] = system: LAF1 strain in mice; conditions: LAF1 mice with accelerated ageing, food-supplement; cited from earlier work
[6] = system: mice of C3H strain; conditions: addition to food; cited from earlier work

Compound	Life span [3]	also measured
COc1ccc2[nH]cc(CCNC(C)=O)c2c1 [melatonin]		Average life span [1]: A minor increase in the average life span; Geroprotective effect [2]: failed to produce a geroprotective effect
CCc1nc(C)ccc1O.Cl [2-ethyl-6-methyl-3-oxypyridine chlorhydrate]	An increase in the life span	
O=C1O[C@H]([C@@H](O)CO)C(O)=C1O [vitamin C]	increase in the life span	
butyl hydroxytoluol	insignificant extension in the life span	
vitamin E	increase in the life span	
O=C(O)[C@H](O)[C@@H](O)[C@H](O)[C@H](O)CO [gluconic acid, lactic and gluconic acids]	insignificant extension in the life span	
NCCS [2-mercaptoethanolamine]	insignificant extension in the life span	
NCCC(=O)N[C@@H](Cc1cnc[nH]1)C(=O)O [carnosine]		Death rate [4]: death rat decreased
N[C@@H](CCC(=O)N[C@@H](CS)C(=O)NCC(=O)O)C(=O)O [glutathione]	insignificant extension in the life span	
N[C@@H](CS)C(=O)O [cystein]	insignificant extension in the life span	
Cc1cc(C(C)(C)C)c(O)c(C(C)(C)C)c1 [Ionol, 2.6-di-tert-butyl4-methylphenol]		Life span [5]: promoted an increase in the life span
Oc1cccnc1 [3-hydroxypyridine]	insignificant extension in the life span	
CCOc1ccc2c(c1)C(C)=CC(C)(C)N2 [ethoxyhin]		Life span [6]: extended the life span
vitamin A	increase in the life span	
CN(C)CCOC(=O)COc1ccc(Cl)cc1 [centrophenoxyn]	insignificant extension in the life span	
